Test results: US20110065749A1, “METHOD AND PHARMACEUTICAL COMPOSITION FOR TREATMENT OF MENTAL DISORDERS” (ACTIVE CO. LTD., priority 2008, published 2011)
Where a name gives a salt, the structure may show the parent alone.

Legend:
[1] = system: manic state of bipolar I disorder; test: Case 3: manic-depressive illness patient; assay type: in vivo, human
Procedure: Case 3: Manic-Depressive Illness Patient was a person, who had continuously been in a manic state of bipolar I disorder for over one month. An antiepileptic drug, or 1,200 mg of Limas®, was ineffective. Antipsychotic drugs were not usable due to significant side effects. […] When they discontinued the administration of Cephadol®, the manic state appeared after 5 days.

Stiff Neck = test: Case 14: seven subjects having stiff neck; assay type: in vivo, human; conditions: two 25 mg tablets two times a day, after two days, all seven subjects
Procedure: Case 14: Stiff Neck Stiff neck is often observed as a subjective symptom, and is one of the most serious complaints in the daily life. Seven subjects having stiff neck were given two 25 mg tablets of Cephadol® two times a day (after dinner and before sleeping).

vertebral artery = conditions: dog experiments; cited from earlier work
Alcoholism = test: Case 6: alcoholism patient; assay type: in vivo, human
Source text: Case 6: Alcoholism Patient was a office worker, who was drinking 1 to 2 liters of beer and 3 to 5 glasses of distilled spirit or whisky with water every day. They were drinking alcohol in daytime on Sundays, and suffering from a complication of liver dysfunction.

Bulimia = test: Case 7: bulimia (1) patient; assay type: in vivo, human; conditions: 150 mg/day
Source text: Patient was a person, who had been suffering from bulimia. Antidepressant, antianxiety, and other drugs were all ineffective. […] The effect of Cephadol® appeared in about two days.

Insomnia = test: Case 11: insomnia in an elderly person; assay type: in vivo, human
Procedure: Case 11: Insomnia in an Elderly Person A person had had no history of insomnia or depression before they retired from their company at mandatory retirement age. […] Being seriously distressed by insomnia, they had been prescribed hypnotics at two or three mental clinics. The hypnotics had made them easily fall down when going to the bathroom at night, and made them feel half awake in the morning, with memory impairment. The patient was started on 50 mg Cephadol® twice a day (after dinner and before sleeping).

Schizophrenia = test: Case 12: schizophrenia patient; assay type: in vivo, human; conditions: 150 mg/day
Source text: A person had been diagnosed with schizophrenia and had received antipsychotic drugs. In spite of the treatment with newest antipsychotic drugs, the dullness of thinking, depression, and obesity of the patient were not improved.

Fibromyalgia = test: Case 16: fibromyalgia (2) patient; assay type: in vivo, human
Source text: […] There were persistent systemic malaise, lassitude, depressed mood, sleeplessness, neck stiffness and systemic pain. Their score of depression on Hamilton D scale was 25 to 28. No hematological abnormality was detected. As a result of overall judgment based on examinations including a tender point examination, they were diagnosed as having fibromyalgia. They were unresponsive to tricyclic or tetracyclic antidepressants, SSRIs, SNRIs, and Moclobemide. Then, they continued the treatment with 60 mg/day fluoxetine. […] It was concluded that the onset of their depression was due to the systemic pain, and the depression was improved by the drastic improvement of the systemic pain.

Alzheimer-Type Dementia = test: Case 4: Alzheimer-type dementia patient; assay type: in vivo, human; conditions: 50 mg before sleeping, added to donepezil hydrochloride
Source text: Case 4: Alzheimer-Type Dementia

Withdrawal Symptoms = test: Case 13: withdrawal symptoms on reducing other drugs; assay type: in vivo, human
Procedure: Case 13: Withdrawal Symptoms A office worker had been on 10 mg Paxil®, 2 mg Rohypnol® and 2 mg Depas® before sleeping. Although they had tried to reduce the doses of the drugs, emergence of withdrawal syndrome had hampered the reduction of the drugs. They started to take Cephadol®, 25 mg after dinner and 50 mg before sleeping. It made them able to be free from the other drugs in two weeks.

[2] = 50 mg twice a day, hypnotics halved
[3] = 25 mg after dinner and 50 mg before sleeping

In the case of `OC(CCCN1CCCCC1)(c1ccccc1)c1ccccc1` [Cephadol®, 1,1-diphenyl-4-piperidine-1-ylbuthan-1-ol monohydrochloride], the “effect on the disease (manic state)” value ([1]; 150 mg/day) is reported as “significant amelioration of the disease”, the side effects ([1]; 150 mg/day) is reported as “no side effects” and the “time until the manic state appeared after discontinuation” value ([1]; after discontinuation of 150 mg/day) is reported as 5 days. For the same compound, the stiff neck symptom (Stiff Neck) was “disappearance or a significant improvement of the symptom”, the “blood flow of the vertebral artery” value (vertebral artery) was “increase the blood flow thereof” and the “spasm of the vertebral artery” value (vertebral artery) was “remit the spasm of the vertebral artery”. For the same compound, the overdrinking (Alcoholism; 150 mg/day continued for three months) was “without any emergence of overdrinking”, the side effects (Alcoholism; 150 mg/day for three months) was “without any side effects” and the “impulse to drink alcohol” value (Alcoholism; 150 mg/day, on the next day) was “eliminated their impulse to drink alcohol”. For the same compound, the restlessness and anxiety (Alcoholism; 150 mg/day, on the next day) was “eliminated their restlessness and anxiety”, the side effects (Bulimia) was “no side effects” and the overeating (Bulimia; previously two to three times a day) was “significantly improved overeating”. For the same compound, the “dose of concomitant hypnotics” value (Insomnia; 50 mg twice a day) was “reduced in dose by half”, the side effects (Insomnia; 50 mg twice a day) was “no side effects” and the sleep (Insomnia; 50 mg twice a day (after dinner and before sleeping)) was “became able to sleep well”. The “memory impairment on the next morning” value (Insomnia; [2]) was “without memory impairment”, the “staggering gait on awaking at night” value (Insomnia; [2]) was “free from staggering gait on awaking at night” and the “appetite and body weight” value (Schizophrenia) was “reduced their appetite and body weight”. For the same compound, the “side effects and relapse of schizophrenia” value (Schizophrenia) was “no side effects, nor relapse of schizophrenia”, the “thinking speed and depression” value (Schizophrenia) was “improved their subjective and objective thinking speed and depression” and the “score of Hamilton D scale” value (Fibromyalgia; 100 mg/day added to fluoxetine, 25 to 28 before) was 16. The “neck stiffness and systemic pain” value (Fibromyalgia; 100 mg/day for one week, added to 60 mg/day fluoxetine) was “reduced neck stiffness and systemic pain”, the “activity of daily living” value (Fibromyalgia; 100 mg/day, after two weeks) was “improved drastically” and the “excitation caused by donepezil hydrochloride” value (Alzheimer-Type Dementia) was “reduced the excitation”. For the same compound, the side effects (Withdrawal Symptoms; [3]) was “no side effects”, the “time until free from the other drugs (Paxil, Rohypnol, Depas)” value (Withdrawal Symptoms; [3]) was “two” and the “outcome after tapering Cephadol” value (Withdrawal Symptoms; dose reduced from 50 mg to 25 mg, and to 0 mg) was “discontinuation of all the drugs”.
